Laboratory results reported in BigSolDB 2.1.

Nc1cccc2ccccc12
solubility (mole fraction)
Conditions	273.15 K	278.15 K	283.15 K	288.15 K	293.15 K	298.15 K	303.15 K	308.15 K
in acetone	0.552	0.59	0.636	0.684	0.724	0.778	0.839	0.898
in acetonitrile	0.527	0.572	0.619	0.658	0.708	0.766	0.829	0.878
in cyclohexane	–	0.00758	0.00992	0.014	0.0185	0.0263	0.0364	0.0621
in ethanol	0.133	0.176	0.231	0.323	0.431	0.555	0.698	0.833
in ethyl acetate	0.49	0.528	0.57	0.611	0.66	0.728	0.788	0.863
in isobutanol	0.0584	0.0819	0.118	0.157	0.251	0.382	0.585	0.841
in isopropanol	0.0524	0.0814	0.123	0.198	0.294	0.461	0.637	0.845
in methanol	0.192	0.245	0.296	0.375	0.477	0.591	0.703	0.845
in n-butanol	0.112	0.145	0.194	0.247	0.353	0.487	0.664	0.84
in n-butyl acetate	0.441	0.485	0.532	0.585	0.645	0.706	0.777	0.849
in n-heptane	0.00549	0.0073	0.00879	0.0115	0.0155	0.0205	0.026	0.0346
in n-propanol	0.0925	0.133	0.181	0.256	0.365	0.512	0.669	0.838
